Assay: In vitro inhibitory potency was measured against phenylethanolamine N-methyl-transferase

Structure (SMILES) | IC50 [µM]
CC(N)Cc1ccc(Cl)cc1 (configuration not stated) [para-chloroamphetamine] | 300
NCc1cccc(Cl)c1 [(3-chlorophenyl)methanamine] | 9

Reference: BindingDB's records for doi:10.1021/jm00179a007 (1980)
